The text below walks through data of PMC4055737, “Forward Genetic Screening Identifies a Small Molecule That Blocks Toxoplasma gondii Growth by Inhibiting Both Host- and Parasite-Encoded Kinases” (PLoS Pathogens, 2014).

The experiment has as its target T1, TgMAPK1 (Toxoplasma gondii, UniProt S8EUF0).
T1 construct: gene MAPKL1; full-length, endogenously C-terminally 3×HA-tagged TgMAPK1 (TGGT1_312570), immunoprecipitated from RH strain tachyzoite lysates
As to the kind of experiment: in vitro autokinase assay (γ[…]-ATP) on anti-HA immunoprecipitated kinase, dose response. It is filed as biochemical.

Structures can show the parent of a compound that is named as a salt.

T1 sequence (S8EUF0 whole entry): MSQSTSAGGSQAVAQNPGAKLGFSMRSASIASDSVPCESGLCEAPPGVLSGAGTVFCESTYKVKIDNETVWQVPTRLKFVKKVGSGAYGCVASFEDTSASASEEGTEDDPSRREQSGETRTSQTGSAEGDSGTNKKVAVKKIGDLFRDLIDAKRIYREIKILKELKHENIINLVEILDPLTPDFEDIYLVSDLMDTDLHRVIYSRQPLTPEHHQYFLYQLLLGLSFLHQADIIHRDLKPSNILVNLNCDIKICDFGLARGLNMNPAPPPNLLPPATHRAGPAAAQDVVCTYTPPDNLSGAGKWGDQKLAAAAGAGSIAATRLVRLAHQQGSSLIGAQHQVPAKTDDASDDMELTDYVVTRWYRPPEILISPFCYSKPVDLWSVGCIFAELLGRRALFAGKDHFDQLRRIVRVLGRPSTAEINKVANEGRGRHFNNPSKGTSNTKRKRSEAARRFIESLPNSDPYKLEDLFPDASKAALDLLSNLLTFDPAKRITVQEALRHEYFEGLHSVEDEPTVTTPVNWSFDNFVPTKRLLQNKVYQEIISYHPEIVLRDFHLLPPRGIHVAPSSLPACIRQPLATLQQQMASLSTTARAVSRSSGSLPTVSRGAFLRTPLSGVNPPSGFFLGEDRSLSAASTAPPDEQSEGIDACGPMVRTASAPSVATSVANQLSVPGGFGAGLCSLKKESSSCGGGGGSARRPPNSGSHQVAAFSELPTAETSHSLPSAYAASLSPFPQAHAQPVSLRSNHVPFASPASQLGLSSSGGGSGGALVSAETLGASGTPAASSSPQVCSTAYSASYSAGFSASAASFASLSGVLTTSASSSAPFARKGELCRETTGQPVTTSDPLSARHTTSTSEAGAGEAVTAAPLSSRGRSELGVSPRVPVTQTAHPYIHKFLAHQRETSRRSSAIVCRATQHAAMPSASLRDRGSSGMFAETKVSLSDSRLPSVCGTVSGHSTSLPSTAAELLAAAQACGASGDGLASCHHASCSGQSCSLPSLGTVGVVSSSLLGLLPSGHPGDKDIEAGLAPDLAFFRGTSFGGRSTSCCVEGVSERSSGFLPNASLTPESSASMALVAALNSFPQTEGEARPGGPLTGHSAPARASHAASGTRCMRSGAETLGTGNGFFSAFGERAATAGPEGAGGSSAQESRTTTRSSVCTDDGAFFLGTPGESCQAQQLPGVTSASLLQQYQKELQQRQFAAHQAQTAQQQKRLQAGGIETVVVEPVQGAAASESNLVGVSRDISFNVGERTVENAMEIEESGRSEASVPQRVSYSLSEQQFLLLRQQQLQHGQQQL

Take `Cc1cccc(-c2[nH]c(C(C)(C)C)nc2-c2ccc3c(c2)OCO3)n1` [SB505124, 2-(5-benzo[1,3]dioxol-5-yl-2-tert-butyl-3H-imidazol-4-yl)-6-methylpyridine hydrochloride]: half-maximal inhibition (IC50) required 125 nM.
